Values quoted from earlier work in patent US7226791B2, “Polynucleotides encoding novel guanylate binding proteins (GBP's)” (Bristol-Myers Squibb Company, priority 2003, dated 2007).

Target: T1, GBP-1 (Homo sapiens, UniProt P32455)
T1 sequence (P32455 1-592): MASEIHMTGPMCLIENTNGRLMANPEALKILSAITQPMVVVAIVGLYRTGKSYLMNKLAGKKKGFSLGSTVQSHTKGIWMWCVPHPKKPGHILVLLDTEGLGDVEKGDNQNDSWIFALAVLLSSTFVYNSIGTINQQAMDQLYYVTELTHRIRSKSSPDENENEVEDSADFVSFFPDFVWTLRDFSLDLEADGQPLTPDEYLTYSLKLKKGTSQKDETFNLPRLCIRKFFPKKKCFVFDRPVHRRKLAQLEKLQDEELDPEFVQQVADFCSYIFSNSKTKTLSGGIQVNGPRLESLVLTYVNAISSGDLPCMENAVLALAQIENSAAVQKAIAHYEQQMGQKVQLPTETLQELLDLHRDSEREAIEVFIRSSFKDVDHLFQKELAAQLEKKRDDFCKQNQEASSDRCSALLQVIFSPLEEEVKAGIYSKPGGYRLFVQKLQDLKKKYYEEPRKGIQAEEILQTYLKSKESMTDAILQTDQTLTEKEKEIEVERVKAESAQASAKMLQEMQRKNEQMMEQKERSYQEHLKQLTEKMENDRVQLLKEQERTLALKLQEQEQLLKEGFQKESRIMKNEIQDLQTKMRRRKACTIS
Details: purified GBP-1 protein, GTP hydrolysis; read-out: Km for substrate; cited from earlier work

Nc1nc2c(ncn2[C@@H]2O[C@H](COP(=O)(O)OP(=O)(O)OP(=O)(O)O)[C@@H](O)[C@H]2O)c(=O)[nH]1 [GTP]
Km: 470 µM
